Measurements: US8518889B2, “Method of treating cancer with antibodies against long-form leukotriene B4 receptor BLT2” (Korea University Research & Business Foundation, priority 2007, dated 2013)

What was measured:
MCF-7 cells = conditions: LY255283 10 μM, epirubicin 100 ng/ml
[1] = tested on: human pancreatic cancer cells; conditions: cited from earlier work

Row | SMILES | DNA fragmentation / cell death (MCF-7 cells) | growth and apoptosis of human pancreatic cancer cells [1]
1 | COc1cccc2c1C(=O)c1c(O)c3c(c(O)c1C2=O)C[C@@](O)(C(=O)CO)C[C@@H]3O[C@H]1C[C@H](N)[C@@H](O)[C@H](C)O1 [Epirubicin] | only tiny increase in cell death | –
2 | CCCc1c(OCCCOc2cc(O)c(-c3ccc(F)cc3)cc2CC)cccc1Oc1ccccc1C(=O)O [LY293111] | – | inhibited the growth of and induced apoptosis of
